The target of one data set is T1, serotonin transporter (Rattus norvegicus, UniProt P31652).
T1 construct: displace ^3H-paroxetine from male rat frontal cortical membranes; from tissue; host or cells: male rat frontal cortex membranes
The data set can be described thus: 3H-paroxetine displacement, affinity for the serotonin transporter. Type of data set: binding.

Data set [1] has as its target T2, cloned human 5HT1A receptors (Homo sapiens, UniProt P08908).
T2 construct: expressed in transfected cells
T2 sequence (P08908 1-422): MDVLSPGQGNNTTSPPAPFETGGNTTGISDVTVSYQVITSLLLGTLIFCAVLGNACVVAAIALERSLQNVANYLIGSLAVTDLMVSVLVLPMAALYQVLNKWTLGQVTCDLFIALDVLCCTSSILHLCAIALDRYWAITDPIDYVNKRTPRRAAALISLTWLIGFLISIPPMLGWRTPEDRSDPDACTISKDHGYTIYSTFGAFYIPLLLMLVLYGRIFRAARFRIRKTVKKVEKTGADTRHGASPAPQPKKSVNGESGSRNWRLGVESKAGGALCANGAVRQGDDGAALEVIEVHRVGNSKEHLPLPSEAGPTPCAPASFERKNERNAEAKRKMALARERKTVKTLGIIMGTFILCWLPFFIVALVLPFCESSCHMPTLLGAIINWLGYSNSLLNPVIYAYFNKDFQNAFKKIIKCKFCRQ
The data set can be described thus: 35S-GTPγS binding assay, antagonist activity at 5HT1A receptors. The format is biochemical. The note with it: for IC50: 35S-GTPγS binding, reversal of the effects of the standard agonist 8-OH-DPAT, membranes with cloned human 5HT1A receptors, read-out: 5HT1A Function IC50; for Emax / 5HT1A Function (Imax): maximum inhibitory effect in 35S-GTPγS binding versus 8-OH-DPAT; for Emax: read-out: 5HT1A Function (Imax). The protocol:
Antagonist activity at 5HT1A receptors was established by using a ^35S-GTPγS binding assay similar to that used by Lazareno and Birdsall (Br. J. Pharmacol. 109: 1120, 1993), in which the test compound's ability to affect the binding of 35S-GTPγS to membranes containing cloned human 5HT1A receptors was determined. Agonists produce an increase in binding whereas antagonists produce no increase but rather reverse the effects of the standard agonist 8-OH-DPAT. The test compound's maximum inhibitory effect is represented as the 1max, while its potency is defined by the IC50.
On the technique in general: Binding of GTPγS marks nucleotide exchange on a G protein.

A further data set concerns the target T3, human 5HT1A receptors (Homo sapiens, UniProt P08908).
T3 construct: expressed in transfected cells; host or cells: CHO cells
T3 sequence (P08908 1-422): T2 sequence (P08908 1-422)
The data set can be described thus: [3H] 8-OH-DPAT displacement from the 5HT1A serotonin receptor (transfected CHO cells). The format is binding. From the text:
High affinity for the serotonin 5HT1A receptor was established by testing the claimed compound's ability to displace [^3H] 8-OH-DPAT (dipropylamino-tetralin) from the 5HT1A serotonin receptor following a modification of the procedure of Hall et al., J. Neurochem. 44, 1685 (1985) which utilizes CHO cells stably transfected with human 5HT1A receptors.

Setting [2] is: displacement of [3H] 8-OH-DPAT, CHO cells stably transfected with human 5HT1A receptors, read-out: 5HT1A Receptor Affinity KI.

Structures can show the parent of a compound that is named as a salt. Where two headings read alike, the source gives them in different places.

As usually defined, the Ki is the equilibrium dissociation constant of an inhibitor or competing ligand from its target. One may read the IC50 as the midpoint of a concentration-inhibition curve. The term melting point denotes the temperature, or range, at which the solid turns liquid.

T1 sequence (P31652 whole entry): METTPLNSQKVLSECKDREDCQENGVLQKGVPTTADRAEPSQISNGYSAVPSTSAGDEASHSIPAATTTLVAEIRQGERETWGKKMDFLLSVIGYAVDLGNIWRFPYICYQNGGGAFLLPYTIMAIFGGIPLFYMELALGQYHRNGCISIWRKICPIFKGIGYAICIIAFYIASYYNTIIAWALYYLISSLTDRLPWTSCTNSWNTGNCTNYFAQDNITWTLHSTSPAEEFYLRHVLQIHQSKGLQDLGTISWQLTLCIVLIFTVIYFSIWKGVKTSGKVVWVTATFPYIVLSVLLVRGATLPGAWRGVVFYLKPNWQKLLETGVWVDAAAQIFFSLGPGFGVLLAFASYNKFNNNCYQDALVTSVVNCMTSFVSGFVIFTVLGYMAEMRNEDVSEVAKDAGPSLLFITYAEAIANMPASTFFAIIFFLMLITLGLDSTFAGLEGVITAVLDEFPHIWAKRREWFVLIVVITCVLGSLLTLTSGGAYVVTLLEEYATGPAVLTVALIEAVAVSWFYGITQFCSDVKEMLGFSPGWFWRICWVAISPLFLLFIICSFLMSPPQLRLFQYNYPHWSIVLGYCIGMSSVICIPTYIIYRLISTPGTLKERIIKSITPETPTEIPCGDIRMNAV

Take `Cc1ccc2[nH]cc(C3=CCN(CC4COc5ccc6nc(C)ccc6c5O4)CC3)c2c1` (stereo not shown) [Example 22, 2-[4-(5-Methyl-1H-indol-3-yl)-3,6-dihydro-2H-pyridin-1-ylmethyl]-8-methyl-2,3-dihydro[1,4]dioxino[2,3-f]quinoline]: the inhibition constant (Ki) stood at 59 nM at serotonin transporter and 34.7 nM on human 5HT1A receptors. In data set [1], the IC50 was determined as 503 nM. The Emax in data set [1] came out at 100%.
On to `Fc1ccc2[nH]cc(C3=CCN(CC4COc5cc(F)c6ncccc6c5O4)CC3)c2c1` (stereo not shown) [Example 15, 6-Fluoro-2-[(4-(5-fluoro-1H-indol-3-yl)-3,6-dihydropyridin-1(2H)-yl)methyl]-2,3-dihydro[1,4]dioxino[2,3-f]quinoline], for which affinity at serotonin transporter was put at a Ki of 1.5 nM. In data set [1], the IC50 was 1030 nM and the Emax was found to be 100%. At human 5HT1A receptors, this compound registered a Ki of 36.4 nM.
On to `COc1ccc2[nH]cc(C3=CCN(C[C@H]4COc5ccc6ncccc6c5O4)CC3)c2c1` (as salt: fumarate) [Example 1], for which the melting point turned out to be 170 °C.
The compound `Cc1ccc2c3c(ccc2n1)OCC(CN1CCC(c2c[nH]c4ccccc24)CC1)O3` (stereo not shown) (as salt: fumarate) (hydrate or solvate) [Example 12, 2-[4-(1H-indol-3-yl)piperidin-1-ylmethyl]-8-methyl-2,3-dihydro[1,4]dioxino[2,3-f]quinoline] came in with a melting point of 206 °C.
Turning to “2-({4-[(7-Ethyl-1H-indol-3-yl)methyl]piperidin-1-yl}methyl)-8-methyl-2,3-dihydro[1,4]dioxino[2,3-f]quinoline [Example 19]”, the “5HT1A Function (Imax)” value in data set [1] is recorded as “(100)”.
Consider `Fc1ccc2[nH]cc(C3=CCN(C[C@H]4COc5ccc6ncccc6c5O4)CC3)c2c1` (hydrate or solvate) [Example 2], for which the melting point is 184 °C.
Take `Nc1ccc2c3c(ccc2n1)OC[C@H](CN1CC=C(c2c[nH]c4ccc(F)cc24)CC1)O3` [Example 18, 2-[4-(5-Fluoro-1H-indol-3-yl)-3,6-dihydro-2H-pyridin-1-ylmethyl]-2,3-dihydro[1,4]dioxino[2,3-f]guinolin-8-ylamine]: at serotonin transporter, the affinity, expressed as Ki, was 0.66 nM. Further, in data set [1], the IC50 stood at 84.9 nM and the Emax came to 100%. The compound also showed a Ki on human 5HT1A receptors of 10.9 nM.
As to `COc1cc2c(c3cccnc13)O[C@@H](CN1CC=C(c3c[nH]c4ccc(F)cc34)CC1)CO2` [Example 17, 2-[4-(5-Fluoro-1H-indol-3-yl)-3,6-dihydro-2H-pyridin-1-ylmethyl]-6-methoxy-2,3-dihydro[1,4]dioxino[2,3-f]qiuinoline], the Ki at serotonin transporter stood at 4.74 nM; at human 5HT1A receptors (setting [2]), 317 nM. For the same compound, in data set [1], the IC50 turned out to be 1410 nM. Also, the Emax in data set [1] turned out to be 100%.
Compound `Fc1ccc2[nH]cc(C3=CCN(CC4COc5cc(F)c6ncccc6c5O4)CC3)c2c1` (stereo not shown) (as salt: fumarate) (hydrate or solvate) [Example 15, 6-Fluoro-2-[(4-(5-fluoro-1H-indol-3-yl)-3,6-dihydropyridin-1(2H)-yl)methyl]-2,3-dihydro[1,4]dioxino[2,3-f]quinoline] yielded a melting point of 190 °C.
For `C1=C(c2c[nH]c3ccccc23)CCN(C[C@H]2COc3ccc4ncccc4c3O2)C1` (hydrate or solvate) [Example 4, 2-[1,4-(1H-indol-3-yl)-3,6-dihydro-2H-pyridin-1-ylmethyl]-2,3-dihydro[1,4]dioxino[2,3-f]quinoline], the melting point was 217 °C.
For `Cc1ccc2c3c(ccc2n1)OCC(CN1CC=C(c2c[nH]c4cc(F)ccc24)CC1)O3` (stereo not shown) [Example 10, 2-[4-(6-Fluoro-1H-indol-3-yl)-3,6-dihydro-2H-pyridin-1-ylmethyl]-8-methyl-2,3-dihydro[1,4]dioxino[2,3-f]quinoline], the values for the Ki on serotonin transporter and on human 5HT1A receptors were 8 nM and 6.7 nM, respectively. The IC50 in data set [1] came out at 259 nM. Besides, the Emax in data set [1] came out at 100%.
Compound `CCc1ccc2c3c(ccc2n1)OCC(CN1CC=C(c2c[nH]c4ccc(F)cc24)CC1)O3` (stereo not shown) (as salt: fumarate) (hydrate or solvate) [Example 14, 8-Ethyl-2-[(4-(5-fluoro-1H-indol-3-yl)-3,6-dihydropyridin-1(2H)-yl)methyl]-2,3-dihydro[1,4]dioxino[2,3-f]quinoline] came in with a melting point of 143 to 144 °C.
For the compound `Fc1ccc2[nH]cc(C3=CCN(C[C@H]4COc5ccc6ncccc6c5O4)CC3)c2c1` [Example 2], at serotonin transporter, the Ki turned out to be 2.82 nM. Moreover, in data set [1], the IC50 was 243 nM and the Emax is 100%. This compound came in with a Ki at human 5HT1A receptors of 9.88 nM.
`C1=C(c2c[nH]c3ccccc23)CCN(C[C@H]2COc3ccc4ncccc4c3O2)C1` [Example 4, 2-[1,4-(1H-indol-3-yl)-3,6-dihydro-2H-pyridin-1-ylmethyl]-2,3-dihydro[1,4]dioxino[2,3-f]quinoline] yielded a Ki at serotonin transporter of 3.38 nM. Also, in data set [1], the IC50 is 226 nM and the Emax worked out at 87%. Moreover, the affinity at human 5HT1A receptors, expressed as Ki, was 4.84 nM.
On to `Fc1ccc2[nH]cc(CC3CCN(C[C@H]4COc5ccc6ncccc6c5O4)CC3)c2c1` [Example 3], for which the Ki on serotonin transporter (displacement of 3H-paroxetine from male rat frontal cortical membranes, read-out: 5-HT Transporter Affinity KI) amounted to 1.2 nM. In data set [1], the IC50 was 120 nM and the Emax was 90%. Further, the Ki on human 5HT1A receptors (setting [2]) is 17.2 nM.
With `N#Cc1ccc2[nH]cc(C3=CCN(CC4COc5ccc6ncccc6c5O4)CC3)c2c1` (stereo not shown) [Example 5, 3-[1-(2,3-Dihydro[1,4]dioxino[2,3-f]quinolin-2-ylmethyl)-1,2,3,6-tetrahydropyridin-4-yl]-1H-indole-5-carbonitrile], the results for the Ki on serotonin transporter and on human 5HT1A receptors (setting [2]) were 2.54 nM and 19.3 nM, respectively.
For `CCc1ccc2c3c(ccc2n1)OCC(CN1CC=C(c2c[nH]c4ccc(F)cc24)CC1)O3` (stereo not shown) [Example 14, 8-Ethyl-2-[(4-(5-fluoro-1H-indol-3-yl)-3,6-dihydropyridin-1(2H)-yl)methyl]-2,3-dihydro[1,4]dioxino[2,3-f]quinoline], the Ki on serotonin transporter stood at 14 nM; at human 5HT1A receptors it was 15.4 nM. Besides, the IC50 in data set [1] turned out to be 166 nM. In addition, the Emax in data set [1] turned out to be 100%.
On to `NC(=O)c1ccc2[nH]cc(C3=CCN(C[C@H]4COc5ccc6ncccc6c5O4)CC3)c2c1` [Example 6, 3-[1-(2,3-Dihydro[1,4]dioxino[2,3-f]qiuinolin-2-ylmethyl)-1,2,3,6-tetrahydropyridin-4-yl]-1H-indole-5-carboxylic Acid Amide], for which the Ki was 3.54 nM on serotonin transporter and 9.44 nM at human 5HT1A receptors (setting [2]).
`COc1ccc2[nH]cc(C3=CCN(C[C@H]4COc5ccc6ncccc6c5O4)CC3)c2c1` [Example 1] had a Ki on serotonin transporter of 54 nM. In data set [1], the IC50 turned out to be 322 nM and the Emax was found to be 100%. This compound also displayed a Ki at human 5HT1A receptors of 9.29 nM.
As for `Cn1cc(C2=CCN(C[C@H]3COc4ccc5ncccc5c4O3)CC2)c2cc(F)ccc21` [Example 7, 2-[4-(5-Fluoro-1-methyl-1H-indol-3-yl)-3,6-dihydro-2H-pyridin-1-ylmethyl]-2,3-dihydro[1,4]dioxino[2,3-f]qiuinoline], the Ki at serotonin transporter was determined as 8.5 nM. In addition, in data set [1], the IC50 is 1080 nM and the Emax came to 100%. The compound also came in with a Ki at human 5HT1A receptors of 14.7 nM.
For the compound `Cc1ccc2c3c(ccc2n1)OCC(CN1CCC(c2c[nH]c4ccccc24)CC1)O3` (stereo not shown) [Example 12, 2-[4-(1H-indol-3-yl)piperidin-1-ylmethyl]-8-methyl-2,3-dihydro[1,4]dioxino[2,3-f]quinoline], the Ki at serotonin transporter turned out to be 2.39 nM. Moreover, in data set [1], the IC50 was 85.7 nM and the Emax was 100%. Besides, at human 5HT1A receptors, the inhibitory constant (Ki) amounted to 9.98 nM.
With “2-({4-[(6-Chloro-1H-indol-3-yl)methyl]piperidin-1-yl}methyl)-8-methyl-2,3-dihydro[1,4]dioxino[2,3-f]quinoline [Example 20]”, the “5HT1A Function (Imax)” value in data set [1] is given as “(100)”.
For `Cc1ccc2c3c(ccc2n1)OCC(CN1CC=C(c2c[nH]c4ccc(F)cc24)CC1)O3` (stereo not shown) [Example 11, 2-[4-(5-Fluoro-1H-indol-3-yl)-3,6-dihydro-2H-pyridin-1-ylmethyl]-8-methyl-2,3-dihydro[1,4]dioxino[2,3-f]quinoline], the Ki on serotonin transporter is 5.51 nM. Besides, in data set [1], the IC50 stood at 120 nM and the Emax came out at 100%. In addition, affinity on human 5HT1A receptors was put at a Ki of 13.2 nM.
